Assays:
Assay in all cases: relative viability (nuclei count vs DMSO), 5 days (fraction); higher = more cells survive
Bortezomib = compound: CC(C)C[C@H](NC(=O)[C@H](Cc1ccccc1)NC(=O)c1cnccn1)B(O)O [Bortezomib]
Outline: (§1)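 Acceptance criteria were a control CV below 25% and at least one doubling per plate. Lung cancer cell lines in 1536-well plates got five library-drug doses (not always all listed) √10 apart by pinning and were left 5 days with no medium change. Viability divides treated-well nuclei by vehicle-well nuclei and is the median across plates. Nuclei were counted by MetaXpress from 4× Hoechst images.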

[1] = compound: CC1=CC(=NN1)NC2=CC(=NC(=N2)/C=C/C3=CC=CC=C3)N4CCN(CC4)C
Outline: as §1

Obatoclax = compound: COC1=CC(c2cc3ccccc3[nH]2)=N/C1=C\c1[nH]c(C)cc1C [Obatoclax]
Outline: as §1

Cell Line	relative viability (Bortezomib; 0.0002 µM)	relative viability (Bortezomib; 0.000632 µM)	relative viability (Bortezomib; 0.002 µM)	relative viability (Bortezomib; 0.002 µM, anchor plate)	relative viability (Bortezomib; 0.006325 µM)	relative viability (Bortezomib; 0.02 µM)	relative viability ([1]; 0.08 µM)	relative viability ([1]; 0.253 µM)	relative viability ([1]; 0.8 µM)	relative viability ([1]; 2.53 µM)	relative viability ([1]; 8 µM)	relative viability (Obatoclax; 0.01 µM)	relative viability (Obatoclax; 0.03162 µM)	relative viability (Obatoclax; 0.1 µM)	relative viability (Obatoclax; 0.3162 µM)	relative viability (Obatoclax; 1 µM)
NCI-H1437	0.928	1	1	0.542	0.272	0.173	1.02	1.06	1.03	0.757	0.346	0.942	0.93	0.951	0.932	0.816
LC-2-ad	0.877	0.815	0.99	1.01	0.257	0.198	1.02	0.996	0.799	0.303	0.177	0.988	0.988	0.81	0.896	0.564
HARA	0.937	0.888	0.902	1.11	0.374	0.0946	0.908	0.951	1.25	0.339	0.217	0.947	0.956	1.01	0.908	0.827
NCI-H1975	0.902	0.858	0.239	0.395	0.153	0.158	0.954	0.956	0.984	0.458	0.152	1.02	0.865	–	0.977	0.717
NCI-H2085	0.979	0.978	0.993	1.07	0.617	0.23	1.04	1.05	0.95	0.695	0.323	0.962	0.975	0.9	0.943	0.56
NCI-H3122	1	0.957	1.07	1	0.825	0.149	1.01	0.857	0.982	0.956	0.308	0.985	0.931	0.927	0.984	1.01
NCI-H1651	0.992	0.969	0.727	0.943	0.173	0.121	1.03	0.992	0.939	0.712	0.288	0.954	0.957	1.07	0.847	0.754
NCI-H522	0.947	0.745	1.02	–	0.638	0.415	0.917	0.89	0.962	0.554	0.444	0.951	0.894	0.861	0.876	0.904
NCI-H441	0.936	0.964	0.575	0.555	0.132	0.139	1.01	1.01	0.931	0.249	0.143	1.06	0.91	0.99	0.705	0.463
ABC-1	0.779	0.566	0.271	0.321	0.216	0.242	0.835	0.888	1.16	0.341	0.227	1.05	0.971	0.753	0.828	0.448
NCI-H2126	0.968	1.02	1.03	1.1	0.924	0.749	0.993	1.04	0.961	0.875	0.41	1.03	0.959	0.931	0.989	0.918
RERF-LC-KJ	0.995	0.949	1.02	1.11	0.366	0.239	0.979	0.964	0.932	0.555	0.279	0.98	1.03	0.989	0.924	0.715
NCI-H1563	0.971	1	0.826	0.858	0.564	0.442	1.03	1.01	0.999	0.752	0.509	0.989	0.979	1.08	0.956	0.895
NCI-H1666	1.01	1.04	0.963	0.855	0.493	0.317	0.973	0.894	1.09	0.847	0.594	0.995	1.03	1.08	0.856	0.517
PC-14	0.957	0.939	0.942	0.871	0.188	0.0669	1	1.07	0.968	0.427	0.104	0.943	1.02	0.787	0.796	0.313
NCI-H1915	0.948	1	1.09	0.96	0.91	0.0999	1	0.96	0.96	0.705	0.22	0.973	0.949	0.898	0.999	0.941
NCI-H1703	1.15	0.757	0.356	0.338	0.132	0.119	0.825	0.912	0.575	0.19	0.135	0.955	0.846	0.858	0.72	0.542
NCI-H661	0.952	0.99	0.989	0.807	0.719	0.228	0.986	0.958	1.03	0.708	0.356	0.96	0.962	1.02	0.883	0.842
NCI-H2170	0.96	0.824	1.07	–	0.815	0.177	0.971	1.04	0.868	0.77	0.266	0.942	0.979	1.01	0.961	0.977
NCI-H1648	0.771	0.769	0.529	–	0.622	0.312	0.972	1.04	0.983	0.655	0.484	1.02	0.85	1.64	0.718	0.815
HCC-78	0.874	0.901	0.815	0.52	0.512	0.329	0.904	1.14	1.08	0.701	0.27	1.09	0.866	0.891	0.771	1.02
